This note sets out measurements from ChEMBL document CHEMBL5214969, “Synthesis and evaluation of 2,9-disubstituted-1,10-phenanthroline derivatives as G-quadruplex binders” (Bioorg Med Chem, 2022).

The source made the active and inactive calls. No cut-off for these calls is given here. Some results are limits rather than exact numbers.

The test system of data set [1] is Quadruplex DNA. Briefly: Binding affinity to human G-quadruplex telomeric DNA F25CebT (5'-duplex FAM-AGGGTGGGTGTAAGTGTGGGTGGGT-TAM-3') assessed as stabilization by measuring change in melting temperature at 5 uM by FRET melting assay. It is filed as nucleic-acid assay.
For data set [2], the system named is NCI-H1299. The experiment in a line: Antiproliferative activity against human NCI-H1299 cells assessed as cell viability at 10 uM after 48 hrs by MTT assay. It is filed as functional.
In data set [3] the test system is Quadruplex DNA. The experiment in a line: Binding affinity to G-quadruplex telomeric DNA 22AG (5'-duplex AGGGTTAGGGTTAGGGTTAGGG-3') (unknown origin) assessed as stabilization by measuring change in melting temperature at 3 M by circular dichroism (CD) spectroscopy. In kind it is nucleic-acid assay. (In general: Circular dichroism is widely used to follow secondary structure.)

Data set [4] has as its system Quadruplex DNA. The experiment in a line: Binding affinity to G-quadruplex telomeric DNA 22AG (5'-duplex AGGGTTAGGGTTAGGGTTAGGG-3') (unknown origin) assessed as stabilization by measuring change in melting temperature at 5 M by circular dichroism (CD) spectroscopy. It is filed as nucleic-acid assay.
The subject of data set [5] is Quadruplex DNA. Briefly: Binding affinity to G-quadruplex telomeric DNA 22CTA (5'-duplex AGGGCTAGGGCTAGGGCTAGGG-3') (unknown origin) assessed as stabilization by measuring change in melting temperature at 5 M by circular dichroism (CD) spectroscopy. It is filed as nucleic-acid assay.
In data set [6] the test system is Quadruplex DNA. The experiment in a line: Binding affinity to G-quadruplex telomeric DNA 26ceb (5'-duplex AAGGGTGGGTGTAAGTGTGGGTGGGT-3') (unknown origin) assessed as stabilization by measuring change in melting temperature at 3 M by circular dichroism (CD) spectroscopy. In kind it is nucleic-acid assay.
In data set [7] the test system is Quadruplex DNA. Briefly: Binding affinity to G-quadruplex telomeric DNA 26ceb (5'-duplex AAGGGTGGGTGTAAGTGTGGGTGGGT-3') (unknown origin) assessed as stabilization by measuring change in melting temperature at 5 M by circular dichroism (CD) spectroscopy. In kind it is nucleic-acid assay.
Data set [8] deals with Quadruplex DNA. The experiment in a line: Binding affinity to G-quadruplex telomeric DNA 26ceb (5'-duplex AAGGGTGGGTGTAAGTGTGGGTGGGT-3') (unknown origin) assessed as stabilization by measuring change in melting temperature at 1 M by circular dichroism (CD) spectroscopy. In kind it is nucleic-acid assay.
The subject of data set [9] is Quadruplex DNA. The experiment in a line: Binding affinity to G-quadruplex telomeric DNA 22CTA (5'-duplex AGGGCTAGGGCTAGGGCTAGGG-3') (unknown origin) assessed as stabilization by measuring change in melting temperature at 1 M by circular dichroism (CD) spectroscopy. It is filed as nucleic-acid assay.
Data set [10] has as its system Quadruplex DNA. The experiment in a line: Binding affinity to G-quadruplex telomeric DNA 22AG (5'-duplex AGGGTTAGGGTTAGGGTTAGGG-3') (unknown origin) assessed as stabilization by measuring change in melting temperature at 0.5 M by circular dichroism (CD) spectroscopy. In kind it is nucleic-acid assay.
For data set [11], the system named is Quadruplex DNA. Briefly: Binding affinity to G-quadruplex telomeric DNA 22CTA (5'-duplex AGGGCTAGGGCTAGGGCTAGGG-3') (unknown origin) assessed as stabilization by measuring change in melting temperature at 0.5 M by circular dichroism (CD) spectroscopy. It is filed as nucleic-acid assay.
Data set [12] concerns Quadruplex DNA. Briefly: Binding affinity to human G-quadruplex telomeric DNA F21T (5'-duplex FAM-GGGTTAGGGTTAGGGTTAGGG-TAM-3') assessed as stabilization by measuring change in melting temperature at 5 uM by FRET melting assay. It is filed as nucleic-acid assay.
The subject of data set [13] is A549. The experiment in a line: Antiproliferative activity against human A549 cells assessed as cell viability at 10 uM after 48 hrs by MTT assay. It is filed as functional. The following applies: for viability at 10 µM: read-out: Activity. In general terms: Formazan colour is commonly taken as a measure of viable cells.
Data set [14] relates to Quadruplex DNA. The experiment in a line: Binding affinity to G-quadruplex telomeric DNA 22CTA (5'-duplex AGGGCTAGGGCTAGGGCTAGGG-3') (unknown origin) assessed as stabilization by measuring change in melting temperature at 3 M by circular dichroism (CD) spectroscopy. In kind it is nucleic-acid assay.
Data set [15] has as its system Quadruplex DNA. The experiment in a line: Binding affinity to G-quadruplex telomeric DNA 22AG (5'-duplex AGGGTTAGGGTTAGGGTTAGGG-3') (unknown origin) assessed as stabilization by measuring change in melting temperature at 1 M by circular dichroism (CD) spectroscopy. In kind it is nucleic-acid assay.
Data set [16] relates to Quadruplex DNA. Briefly: Binding affinity to G-quadruplex telomeric DNA 26ceb (5'-duplex AAGGGTGGGTGTAAGTGTGGGTGGGT-3') (unknown origin) assessed as stabilization by measuring change in melting temperature at 0.5 M by circular dichroism (CD) spectroscopy. It is filed as nucleic-acid assay.
Data set [17] in a line: (§1) Cytotoxicity against human NHDF cells assessed as cell viability at 10 uM after 48 hrs by MTT assay. In kind it is toxicity, cell-based. The settings on record: NHDF cells, read-out: Activity.
The subject of data set [18] is Quadruplex DNA. The experiment in a line: Binding affinity to human G-quadruplex telomeric DNA F21CTAT (5'-duplex FAM-GGGCTAGGGCTAGGGCTAGGG-TAM-3') assessed as stabilization by measuring change in melting temperature at 5 uM by FRET melting assay. It is filed as nucleic-acid assay.
The subject of data set [19] is Quadruplex DNA. Briefly: Binding affinity to G-quadruplex telomeric DNA FdxT (5'-duplex FAM-TATAGCTAT-PEG-TATAGCTATA-TAM-3') assessed as stabilization by measuring change in melting temperature at 5 uM by FRET melting assay. In kind it is nucleic-acid assay.
Data set [20] has as its system NHDF. The description is as §1. It is filed as toxicity, cell-based. The following applies: nhdf, 48 h, 10 µM.

For the compound `NCCNC(=O)c1ccc2ccc3ccc(C(=O)NCCN)nc3c2n1`, the ΔTm (in general, the change in melting temperature against a reference sample) was determined as 1.8 °C in data set [1]; 2.5 °C in data set [3]; 1.4 °C in data set [4]; 4.3 °C in data set [5]; 9.7 °C in data set [6]; 11.7 °C in data set [7]. Further, the thermal shift (ΔTm) in data set [8] turned out to be 4.6 °C; in data set [9] it was 1.3 °C; in data set [10], 0.5 °C; in data set [11], 0.4 °C; in [12], 7.2 °C; in data set [14], 2.9 °C. For the same compound, the figures for the thermal shift (ΔTm) in data set [15], in [16] and in data set [18] were 0.3 °C, 3.4 °C and 2.9 °C, respectively. The result in data set [2] was Active. Besides, the viability at 10 µM in data set [13] came to 24.5%. In [17], the viability at 48 h, 10 µM was 75.1%.
For `C[n+]1cc(NC(=O)c2ccc3ccc4ccc(C(=O)Nc5cc6ccccc6[n+](C)c5)nc4c3n2)cc2ccccc21`, the ΔTm in [1] is above 30 °C; in [19], 0.6 °C; in data set [12], above 30 °C; in [18] it was above 30 °C.
As for `COc1ccc(NCc2ccc3ccc4ccc(CNc5ccc(OC)cc5)nc4c3n2)cc1`, the ΔTm in data set [1] came to 3.8 °C; in data set [3] it was 1.5 °C; in data set [4], 1.1 °C; in [5], 3.1 °C; in data set [6], 5.9 °C; in data set [7] it was 8.1 °C. Further, the thermal shift (ΔTm) in [8] came to 2.3 °C; in [9], 1.8 °C; in [10], 0.5 °C; in [11], 0.9 °C; in data set [12], 9.2 °C; in [14] it was 2.6 °C. Also, the shift in melting temperature (ΔTm) amounted to 0.9 °C in [15], 1.1 °C in data set [16] and 4.1 °C in data set [18]. The Activity entry in [20] is listed as “Toxic”.
Regarding `CC(C)(C)OC(=O)NCCNC(=O)c1ccc2ccc3ccc(C(=O)NCCNC(=O)OC(C)(C)C)nc3c2n1`, the ΔTm was 0.8 °C in data set [1] and 0.7 °C in data set [12]. Further, the result in [2] and in data set [13] was Active.
Turning to `O=C1NCCNCCNC(=O)c2ccc3ccc4ccc1nc4c3n2`, the figures for the ΔTm in [1] and in [12] were 1.7 °C and 0.4 °C, respectively. Also, the outcome in data set [2] and in data set [13] was Active.
On to `CCCCCCNCc1ccc2ccc3ccc(CNCCCCCC)nc3c2n1`, for which the figures for the viability at 10 µM in data set [2] (read-out: Activity) and in data set [13] were 42.9% and 27.4%, respectively. Moreover, in [12], the ΔTm came to 5.3 °C. For the same compound, the viability at 48 h, 10 µM in [17] is 22.4%.
Regarding `OCCNCc1ccc2ccc3ccc(CNCCO)nc3c2n1`, the ΔTm was determined as 0.4 °C in [1] and 1.2 °C in data set [12].
For `NNC(=O)c1ccc2ccc3ccc(C(=O)NN)nc3c2n1`, the figures for the thermal shift (ΔTm) in data set [1] and in [12] were 1.2 °C and 1.8 °C, respectively. Besides, the result in data set [2] and in [13] was Active.
For the compound `CCCCCC/N=C/c1ccc2ccc3ccc(/C=N/CCCCCC)nc3c2n1`, the values for the thermal shift (ΔTm) in data set [1] and in data set [12] were 0.7 °C and 1.1 °C, respectively. In addition, the Activity entry in [20] was “Non-Toxic”.
With `NCCNCc1ccc2ccc3ccc(CNCCN)nc3c2n1.O=C(O)C(F)(F)F.O=C(O)C(F)(F)F.O=C(O)C(F)(F)F.O=C(O)C(F)(F)F`, the thermal shift (ΔTm) amounted to 7.8 °C in data set [1]; 3.4 °C in data set [3]; 3.5 °C in data set [4]; 2.1 °C in data set [5]; 5.4 °C in data set [6]; 7.6 °C in data set [7]. Further, the ΔTm was found to be 2.1 °C in [8]; 1.3 °C in [9]; 0.7 °C in data set [10]; 0.6 °C in data set [11]; 12 °C in data set [12]; 1.9 °C in [14]. In addition, the shift in melting temperature (ΔTm) in [15] was determined as 2.1 °C; in [16], 0.9 °C; in data set [18], 5.2 °C. Moreover, the Activity result in data set [20] is recorded as “Toxic”.
As for `O=C1NCCOCCOCCNC(=O)c2ccc3ccc4ccc1nc4c3n2`, the ΔTm in data set [1] stood at 0.4 °C; in [12], 0.5 °C. Further, the result in [2] and in data set [13] was Active.
For the compound `CC(C)(C)OC(=O)NCC/N=C/c1ccc2ccc3ccc(/C=N/CCNC(=O)OC(C)(C)C)nc3c2n1`, the ΔTm in data set [1] and in data set [12] was 0.6 °C each time.
In the case of `OCC/N=C/c1ccc2ccc3ccc(/C=N/CCO)nc3c2n1`, the shift in melting temperature (ΔTm) in data set [1] came to 0.9 °C; in data set [12] it was 1.1 °C.
`COc1ccc(/N=C/c2ccc3ccc4ccc(/C=N/c5ccc(OC)cc5)nc4c3n2)cc1`: the thermal shift (ΔTm) in data set [1] was found to be 0.7 °C; in data set [12], 0.8 °C.
In the same order, the values of `CC/N=C/c1ccc2ccc3ccc(/C=N/CC)nc3c2n1` are 1.2 °C and 1.5 °C.
As to `CC(C)(C)OC(=O)NCCNCc1ccc2ccc3ccc(CNCCNC(=O)OC(C)(C)C)nc3c2n1`, the results for the ΔTm in data set [1] and in data set [12] were 0.9 °C and 1.2 °C, respectively.
In the same order, the values of `O=C(N/N=C/c1c(O)ccc2ccccc12)c1ccc2ccc3ccc(C(=O)N/N=C/c4c(O)ccc5ccccc45)nc3c2n1` are 2.6 °C and 1 °C.
